Measured values reported in patent publication US20210379068A1, “METHODS AND MATERIALS FOR TREATING NEUROPSYCHIATRIC DISORDERS” (Mayo Foundation for Medical Education and Research, priority 2018, published 2021).
Entries after “also recorded” stand apart in the source; their conditions may differ.

What was measured:
Format in all cases: in vivo, mouse
SASP factors = test: Circulating cytokines in blood plasma, INK-ATTAC mice on HFD; conditions: HFD-fed INK-ATTAC mice; AP vs vehicle
Method: (§1) INK-ATTAC mice were injected intraperitoneally (i.p.) with AP20187 (10 mg/kg) or vehicle for 3 days every 2 weeks for a total of 8-10 weeks.
Serum levels of cytokines: Eotaxin, G-Csf, Tnf-α, Il-6, Ifn-γ, Il-1α, Il-1β, Il-17, Il-2, Kc/Cxcl1, Mcp-1, M-Csf, Mig, Mip-1α, and Mip-1β were determined using a Multiplexing LASER Bead Assay (Mouse Cytokine Array/Chemokine Array 31-Plex (MD31), Eve Technologies; Canada). Blood was withdrawn from mice by punctuation of the sub-mandibular vein at the day of dissection before an animal was sacrificed. 50 μL of serum were shipped to Eve Technologies on dry ice. Due to high variability of data an unbiased elimination of outliers was performed using ROUT's method (Graphpad 7 Prism). The same panel was used to detect SASP in MAF and 50 μl of media was shipped to Eve Technologies on dry ice.

HFD-fed INK-ATTAC mice = test: Elevated plus maze, chow/HFD INK-ATTAC mice treated with AP20187; conditions: INK-ATTAC mice on HFD; AP20187 10 mg/kg i.p. vs vehicle
Method: as §1
A grey colored elevated plus maze apparatus was used. Two open arms (25×5 cm) and two closed arms (25×5 cm) were attached at right angles to a central platform (5×5 cm). The apparatus was set 40 cm above the floor. Mice were first acclimatized to the room for 1-1.5 hours. Mice were then placed individually on the central platform with their back to one of the open arms. Before the test, mice were habituated for 1 minute to the maze, then placed back in the home cage for 5 minutes. Mice were tested for 5 minutes during which they could freely explore the apparatus. Tracking software (Ethovision) recognizes mouse head, central body point, and the base of the tail. Anxiety was quantified by frequency of and time spent during head pokes/dips toward open arms. Higher anxiety is indicated by a lower frequency of movement into open arms and less time spent there.

[1] = tested on: senescent cells in the hypothalamus; test: TAF in hypothalamus close to the 3rd ventricle, INK-ATTAC mice; conditions: HFD INK-ATTAC mice, AP20187 vs vehicle
Method: as §1
Paraffin sections were deparaffinized with Histoclear and hydrated in an ethanol gradient followed by water and PBS. Antigen was retrieved by incubation in 0.01M citrate buffer (pH 6.0) at 95° C. for 10 minutes. Slides were placed in blocking buffer (1:60 normal goat serum [S-1000, Vector Laboratories] in 0.1% BSA/PBS) for 60 minutes at room temperature. […] Primary antibodies used (Table 2) were diluted in blocking buffer and applied overnight at 4° C. The next day, slides were washed 3 times with PBS and incubated for 30 minutes with secondary goat, anti-rabbit antibody (1:200; Vector Laboratories #BA-1000) for TAF staining or for 60 minutes with secondary Alexa antibody (Table 1). For TAF staining, Fluorescein-Avidin in PBS (1:500; #A-2011, Vector Lab) was applied to each sample for 20 minutes. Slides were washed 3 times in PBS, which was followed by FISH for TAF detection. Briefly, tissues were crosslinked with 4% paraformaldehyde for 20 minutes and dehydrated in graded ethanol. Sections were denatured for 10 minutes at 80° C. in hybridization buffer (70% formamide (Sigma), 25 mM MgCl2, 0.1 M Tris (pH 7.2), and 5% blocking reagent [Roche]) containing 2.5 μg ml^−1 Cy-3-labelled telomere-specific (CCCTAA) peptide nucleic acid probe (Panagene), followed by hybridization for 2 hour at room temperature in the dark. Slides were washed twice with 70% formamide in 2×SSC for 15 minutes, followed by washes in 2×SSC and PBS for 10 minutes. Sections were mounted in Vectashield, DAPI-containing mounting media and imaged.
(§2) A single, 3 μm-thick section per mouse was used for TAF staining, while for Dcx and Plin2 staining was performed on three 10 μm-thick sections 80 μm-apart. To quantify periventricular lipid accumulation 10-30 images in the periventricular region were taken using the DM5500 widefield fluorescence microscope from Leica with a 10× (for frequency of periventricular glia) or ×40 (for ALISE phenotype of ependymal cells) objective lens. Number of Plin2-positive cells (for frequency of ALISE-positive periventricular glia) or area of Plin2-positive vesicles (for ALISE phenotype of ependymal cells) was assessed using ImageJ software. For identity assessment of Plin2+ cells, 10 μm-thick sections were stained with combination of antibodies for Iba1 (secondary antibody conjugated with Alexa Fluor 488), Plin2 (secondary antibody conjugated with Alexa Fluor 594), and Vimentin (secondary antibody conjugated with Alexa Fluor 647) and quantified for frequency of Plin2+ astrocytes (Iba1−, Vim+) and microglia (Iba1+) in the periventricular region. A separate staining for Plin2 (secondary antibody conjugated with Alexa Fluor 594) and NeuN (secondary antibody conjugated with Alexa Fluor 647) was used to determine frequency of Plin2+ neurons in periventricular region. For TAF quantification in depth Z stacking was used (images were captured as stacks separated by 0.4 μm with ×63 objective) followed by ImageJ analysis.

[2] = tested on: senescent cells in cortex, cerebellum, and hippocampus; test: Senescence markers in cortex, cerebellum and hippocampus, INK-ATTAC mice; conditions: obese and lean INK-ATTAC mice with and without AP
Method: as §1
Total RNA was extracted from white adipose tissue and brain using Trizol (Life Technologies, Carlsbad, Calif.) and reverse transcribed to cDNA with a M-MLV Reverse Transcriptase kit (Life Technologies). Real-time PCR was performed in a 7500 Fast Real Time PCR System (Applied Biosystems, Foster City, Calif.) using TaqMan Fast Universal PCR Master Mix (Life Technologies) and predesigned primers and probes from Applied Biosystems (Assay ID: Mm00494449_m1 [CDKN2A]; Mm04205640_g1 [CDKN1A]; Mm00446191_m1 [IL6]). Target gene expression was expressed as 2-ΔΔCT by the comparative CT method and normalized to the expression of TATA-binding protein (TBP) (Assay ID: Mm01277042 ml [TBP]).
Paraffin sections were deparaffinized with Histoclear and hydrated in an ethanol gradient followed by water and PBS. Antigen was retrieved by incubation in 0.01M citrate buffer (pH 6.0) at 95° C. for 10 minutes. Slides were placed in blocking buffer (1:60 normal goat serum [S-1000, Vector Laboratories] in 0.1% BSA/PBS) for 60 minutes at room temperature. […] Primary antibodies used (Table 2) were diluted in blocking buffer and applied overnight at 4° C. The next day, slides were washed 3 times with PBS and incubated for 30 minutes with secondary goat, anti-rabbit antibody (1:200; Vector Laboratories #BA-1000) for TAF staining or for 60 minutes with secondary Alexa antibody (Table 1). […]
as §2, with “A separate staining for Plin2 (secondary antibody conjugated with Alexa Fluor 594) and NeuN (secondary antibody conjugated with Alexa Fluor 647) was used to determine frequency of Plin2+ neurons in periventricular region.” left out

For `CC[C@H](C(=O)N1CCCC[C@H]1C(=O)O[C@H](CCc1ccc(OC)c(OC)c1)c1cccc(OCC(=O)NCC(CNC(=O)COc2cccc([C@@H](CCc3ccc(OC)c(OC)c3)OC(=O)[C@@H]3CCCCN3C(=O)[C@@H](CC)c3cc(OC)c(OC)c(OC)c3)c2)CN(C)C)c1)c1cc(OC)c(OC)c(OC)c1` [AP], the “G-Csf in the bloodstream” value (SASP factors) was “down-regulated”, the “Il-1β in the bloodstream” value (SASP factors) was “down-regulated” and the “Kc/Cxcl1 in the bloodstream” value (SASP factors) was “down-regulated”. For the same molecule, the “Mcp-1 in the bloodstream” value (SASP factors) was “down-regulated”, the “Mig in the bloodstream” value (SASP factors) was “down-regulated” and the “Tnf-α in the bloodstream” value (SASP factors) was “down-regulated”. For the same molecule, the “anxiety-like phenotype: frequency of head entries/pokes into the open arms, EPM” value (HFD-fed INK-ATTAC mice) was “increased; also recorded: significantly decreased the anxiety-like phenotype”, the “time mice spent with their heads in open area, EPM” value (HFD-fed INK-ATTAC mice) was “increased” and the “% of NeuN-neg cells with 2 or more TAF, hypothalamus close to the 3rd ventricle” value [1] was “significant decrease”. The “% of NeuN-pos cells with 2 or more TAF, hypothalamus close to the 3rd ventricle” value [1] was “significant decrease”, the “mean number of TAF in NeuN-neg cells, hypothalamus close to the 3rd ventricle” value [1] was “significantly reduced” and the “mean number of TAF in NeuN-pos cells, hypothalamus close to the 3rd ventricle” value [1] was “significantly reduced”. The “% of NeuN-neg cells with 2 or more TAF, hypothalamus close to the 3rd ventricle” value ([1]; listed as AP20187) was “significantly reduced”, the “% of NeuN-pos cells with 2 or more TAF, hypothalamus close to the 3rd ventricle” value ([1]; listed as AP20187) was “significantly reduced” and the “TAF in cortex, cerebellum, hippocampus” value [2] was “No differences”. For the same molecule, the “p16 in cortex, cerebellum, hippocampus” value [2] was “No differences”, the “p21 in cortex, cerebellum, hippocampus” value [2] was “No differences” and the “γ-H2A.X in cortex, cerebellum, hippocampus” value [2] was “No differences”.
